# Data taken from patent US20240150293A1, “SPIROCYCLOHEXANE DERIVATIVES, PHARMACEUTICAL COMPOSITIONS CONTAINING THEM AND THEIR USES AS ANTI-APOPTOTIC INHIBITORS” (LES LABORATOIRES SERVIER, priority 2021, published 2024).
# Columns and labels:
# [1] = test system: AMO-1 multiple myeloma xenografts; experiment: Anti-tumor activity in vivo (Example D); parameters: species or system SCID mice
# Procedure: The anti-tumor activity of the compounds of the invention was evaluated using AMO-1 multiple myeloma xenografts.
# 1×10^7 cells were subcutaneously grafted into immunosuppressed SCID mice. 7-10 days later, when the tumor mass had reached an average volume of about 150 mm^3, mice were treated with the various compounds once a week for 2 weeks (per os, HEC 1%/Tween 80 99:1). Tumor size was measured three times per week using electronic calipers.
# At the end of the treatment cycle (d9), tumor growth inhibition (TGI) was calculated using the formula: […]
# wherein DTV (Delta Tumor Volume) at Dx was calculated as follows: […]
# (Tumor Volume at Dx)−(Tumor Volume at Randomization).
# [2] = test system: AMO-1 multiple myeloma xenograft; experiment: Quantification of the cleaved form of PARP in vivo, IV (Example E); parameters: species or system SCID mice; conditions: single dose
# Procedure: (§1) The ability of the compounds of the invention to induce apoptosis was evaluated in vivo using the AMO-1 multiple myeloma xenograft.
# (§2) 1×10^7 cells were subcutaneously grafted into immunosuppressed SCID mice. 12-14 days later, when tumors had reached the appropriate volume, mice (3 per group) were treated once with the various compounds (IV). Tumor samples were recovered 6 or 16 hours after dosing and lysed. Cleared lysates were used for cleaved PARP quantification (as a marker of apoptosis induction) using the Meso Scale Discovery (MSD) Elisa platform test. Results are expressed as the ratio between cleaved PARP in treated mice over control mice.
# NCI-H929 cell lines = experiment: In vitro cytotoxicity, CellTiter-Glo (CTG) assay (Example B, Method B); type: cell-based; conditions: Homo sapiens, NCI-H929, 48 h, NCI-H929 cells, 48 h incubation, read-out: C50
# In short: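 NCI-H929 cells exposed to an 11-point compound series from 10 mM DMSO stocks (top final 30 μM) for 48 h at 37° C., 5% CO2. Viability measured as ATP by CellTiter-Glo luminescence; C50 is the concentration giving 50% cellular viability.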
# [3] = molecular target: Cy5-labelled Mcl1 (amino acids 171-321) C286S protein (UniProtKB Q07820) (Homo sapiens (Human), UniProt Q07820, C286S); experiment: Inhibition of Mcl-1 by the fluorescence quenching assay (Example A, Method B); type: binding
# In short: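 Cy5-labelled Mcl1 171-321 C286S (1 nM) quenched by TQ5WS-labelled PUMA peptide (10, 20 or 400 nM); displacement raises fluorescence (Ex 620/Em 680 nm). Buffer 10 mM HEPES, 150 mM NaCl, 0.05% Tween 20, pH 7.4, 5% DMSO; 2 h at room temperature, 11-point curves, IC50 converted to Ki (cKi/eKi).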
# [4] = test system: AMO-1 multiple myeloma xenograft; experiment: Quantification of the cleaved form of PARP in vivo, per os (Example C); parameters: species or system SCID mice; conditions: single dose per os, tumors recovered 16 hours after dosing
# Procedure: as §1
# as §2, with “(per os, HEC 1%/Tween 80 99:1).” for “(IV).”, “recovered” for “recovered 6 or”
# [5] = 30 mpk per os once a week for 2 weeks
# [6] = 60 mpk per os once a week for 2 weeks
# [7] = 120 mpk per os once a week for 2 weeks
# Sequence of Cy5-labelled Mcl1 (amino acids 171-321) C286S protein (Q07820 171-321 C286S): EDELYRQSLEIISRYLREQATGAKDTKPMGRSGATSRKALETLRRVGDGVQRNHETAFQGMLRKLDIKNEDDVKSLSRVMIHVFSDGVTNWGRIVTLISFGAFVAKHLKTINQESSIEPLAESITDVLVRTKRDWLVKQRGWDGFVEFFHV
Ki [3] [nM],SMILES,"% TGI (d9) [1, 5] [%]","% TGI (d9) [1, 6] [%]","Cleaved PARP (fold to control) ([2]; 15 mpk IV, time-point 6 h)","Cleaved PARP (fold to control) ([2]; 30 mpk IV, time-point 6 h)","Cleaved PARP (fold to control) ([2]; 30 mpk IV, time-point 16 h)",IC50 (NCI-H929 cell lines) [nM],"% TGI (d9) [1, 7] [%]",Cleaved PARP (fold to control) ([4]; 60 mpk),Cleaved PARP (fold to control) ([4]; 120 mpk),Cleaved PARP (fold to control) ([4]; 30 mpk),"Cleaved PARP (fold to control) ([2]; 7.5 mpk IV, time-point 6 h)"
0.0801,"CCOc1ccc2c(c1)[C@]1(CC[C@@](Nc3cccc(Cl)c3)(C(=O)O)CC1)[C@@H](C[C@@H](C)COc1ccnc3c1[C@H](C)CCC3)C2 [Example 784, (1r,2′S,4S)-4-(3-chloroanilino)-6′-ethoxy-2′-[(2R)-2-methyl-3-{[(5R)-5-methyl-5,6,7,8-tetrahydroquinolin-4-yl]oxy}propyl]-2′,3′-dihydrospiro[cyclohexane-1,1′-indene]-4-carboxylic acid]",103.6,112,227.5 fold to control,174.2 fold to control,129.9 fold to control,106,–,–,–,–,–
0.251,"COc1cc2c(cc1Cl)C[C@H](C[C@@H](C)COc1ccnc3c1[C@H](C)CCC3)[C@]21CC[C@](Nc2cccc(Cl)c2)(C(=O)O)CC1 [Example 815, (1r,2′S,4S)-5′-chloro-4-(3-chloroanilino)-6′-methoxy-2′-[(2R)-2-methyl-3-{[(5R)-5-methyl-5,6,7,8-tetrahydroquinolin-4-yl]oxy}propyl]-2′,3′-dihydrospiro[cyclohexane-1,1′-indene]-4-carboxylic acid]",–,18.7,–,–,–,87.7,66.8,2.3 fold to control,4.6 fold to control,–,–
0.0337,"C[C@@H](COc1ccnc2c1[C@H](C)CCC2)C[C@H]1Cc2cc3c(cc2[C@]12CC[C@@](Nc1cccc(Cl)c1)(C(=O)O)CC2)OCCO3 [Example 838, (1r,4S,7′S)-4-(3-chloroanilino)-7′-[(2R)-2-methyl-3-{[(5R)-5-methyl-5,6,7,8-tetrahydroquinolin-4-yl]oxy}propyl]-2′,3′,7′,8′-tetrahydrospiro[cyclohexane-1,6′-indeno[5,6-b][1,4]dioxine]-4-carboxylic acid]",–,129.2,–,–,–,21.6,–,7.8 fold to control,–,15 fold to control,–
0.0554,"C[C@@H](COc1ccnc2c1[C@H](C)CCC2)C[C@H]1Cc2cc3c(cc2[C@]12CC[C@@](Nc1cccc(Cl)c1)(C(=O)O)CC2)OCO3 [Example 840, (1r,4S,6′S)-4-(3-chloroanilino)-6′-[(2R)-2-methyl-3-{[(5R)-5-methyl-5,6,7,8-tetrahydroquinolin-4-yl]oxy}propyl]-6′,7′-dihydro-2′H-spiro[cyclohexane-1,5′-indeno[5,6-d][1,3]dioxole]-4-carboxylic acid]",83.8,119.8,127.8 fold to control,166.3 fold to control,138.2 fold to control,30.5,–,29.4 fold to control,–,19.2 fold to control,–
0.0736,"C[C@@H](COc1ccnc2c1[C@H](C)CCC2)C[C@H]1Cc2cc3c(cc2[C@]12CC[C@@](Nc1ccc(F)c(Cl)c1)(C(=O)O)CC2)OCO3 [Example 845, (1r,4S,6′S)-4-(3-chloro-4-fluoroanilino)-6′-[(2R)-2-methyl-3-{[(5R)-5-methyl-5,6,7,8-tetrahydroquinolin-4-yl]oxy}propyl]-6′,7′-dihydro-2′H-spiro[cyclohexane-1,5′-indeno[5,6-d][1,3]dioxole]-4-carboxylic acid]",88.2,128.3,188.7 fold to control,158.2 fold to control,116.4 fold to control,38.3,–,–,–,–,–
0.0847,"Cc1c(Cl)cccc1N[C@]1(C(=O)O)CC[C@]2(CC1)c1cc3c(cc1C[C@@H]2C[C@@H](C)COc1ccnc2c1[C@H](C)CCC2)OCO3 [Example 847, (1r,4S,6′S)-4-(3-chloro-2-methylanilino)-6′-[(2R)-2-methyl-3-{[(5R)-5-methyl-5,6,7,8-tetrahydroquinolin-4-yl]oxy}propyl]-6′,7′-dihydro-2′H-spiro[cyclohexane-1,5′-indeno[5,6-d][1,3]dioxole]-4-carboxylic acid]",–,–,215 fold to control,–,–,64.3,–,–,–,–,185.9 fold to control
0.455,"Cc1cc2c(cc1C)[C@]1(CC[C@@](Nc3cccc(Cl)c3)(C(=O)O)CC1)[C@@H](C[C@@H](C)COc1ccnc3c1[C@H](C)CCC3)C2 [Example 854, (1r,2′S,4S)-4-(3-chloroanilino)-5′,6′-dimethyl-2′-[(2R)-2-methyl-3-{[(5R)-5-methyl-5,6,7,8-tetrahydroquinolin-4-yl]oxy}propyl]-2′,3′-dihydrospiro[cyclohexane-1,1′-indene]-4-carboxylic acid]",32,95.2,–,–,–,147,111.8,26.4 fold to control,29.1 fold to control,6.9 fold to control,–
0.0267,"COCc1ccc2c(c1)[C@]1(CC[C@@](Nc3cccc(Cl)c3)(C(=O)O)CC1)[C@@H](C[C@@H](C)COc1ccnc3c1[C@H](C)CCC3)C2 [Example 919, (1r,2′S,4S)-4-(3-chloroanilino)-6′-(methoxymethyl)-2′-[(2R)-2-methyl-3-{[(5R)-5-methyl-5,6,7,8-tetrahydroquinolin-4-yl]oxy}propyl]-2′,3′-dihydrospiro[cyclohexane-1,1′-indene]-4-carboxylic acid]",–,121,185.6 fold to control,199.9 fold to control,69.7 fold to control,38.9,–,9.7 fold to control,–,6.7 fold to control,–
